Publication PMC10212229 (Pharmaceutical Research, 2023)
Entries after “also recorded” stand apart in the source; their conditions may differ.

Legend:
Caco-2 = conditions: cited from earlier work
[1] = Clinical pharmacokinetics of nirmatrelvir in healthy volunteers; assay type: in vivo, human; conditions: for renal clearance in the presence and absence of ritonavir: with vs without ritonavir
CYP3A4 = conditions: cited from earlier work
[2] = In vitro precipitation test of nirmatrelvir SDD formulation; assay type: physicochemical; conditions: Pfizer data on file
[3] = without ritonavir coadministration; cited from earlier work
[4] = Paxlovid PBPK model verification, nirmatrelvir predicted vs observed exposure; set-up: species or system human
MDCK-LE = conditions: cited from earlier work
[5] = Simcyp ritonavir first-order compound file; set-up: species or system human; conditions: PK and DDI

CC(C)(C)[C@H](NC(=O)C(F)(F)F)C(=O)N1C[C@H]2[C@@H]([C@H]1C(=O)N[C@H](C#N)C[C@@H]1CCNC1=O)C2(C)C [Nirmatrelvir, nirmatrelvir]
Papp (Caco-2): 0.66–1.19 10^–6 cm/s | oral clearance (CLPO) ([1]; SDD 300 mg single dose without ritonavir, Dataset #1, geometric mean): 28.36 L/h | renal clearance in the presence and absence of ritonavir [1]: did not change | renal clearance in the presence and absence of ritonavir ([1]; listed as nirmatrelvir): remains the same | in vitro fm,CYP3A4 (CYP3A4; formation rate of the major metabolites with selective inhibitors): 0.99 | main metabolizing enzyme (CYP3A4; in vitro reaction phenotyping data): mainly metabolized by CYP3A4; also recorded: predominantly metabolized by CYP3A4 | period remained in solution without precipitating [2]: 24 h | half-life [3]: 2 h | deviation of predicted AUC and Cmax from the observed [4]: ≤ 20% | Papp (MDCK-LE): 1.76 10^–6 cm/s

CC(C)c1nc(CN(C)C(=O)N[C@H](C(=O)N[C@@H](Cc2ccccc2)C[C@H](O)[C@H](Cc2ccccc2)NC(=O)OCc2cncs2)C(C)C)cs1 [Ritonavir, ritonavir]
predicted vs observed values, ritonavir model [5]: within twofold
